Activity calls are given as the source filed them. The rule behind the calls is not given here.

The nature of assay [1]: Inhibition of rat brain BZP receptor by PDSP assay.
Assay [2] concerns RAW264.7. Nature of the assay: Neuroprotective activity in mouse RAW264.7 cells assessed as inhibition of LPS-stimulated nitric oxide release after 20 to 24 hrs by Griess assay. In kind it is functional, cell-based.
Assay [3] deals with 5-hydroxytryptamine receptor 2A (Homo sapiens, UniProt P28223). The assay is described as follows: Inhibition of 5-HT2A receptor (unknown origin) by PDSP assay.
The test system of assay [4] is RAW264.7. The assay is described as follows: Neuroprotective activity in mouse RAW264.7 cells assessed as inhibition of LPS-stimulated nitric oxide release at 100 uM after 20 to 24 hrs by Griess assay relative to control. In kind it is functional. For orientation: Nitrite, measured by Griess reagent, commonly stands in for NO production.
The target in assay [5] is 5-hydroxytryptamine receptor 1B (Homo sapiens, UniProt P28222). Nature of the assay: Inhibition of 5-HT1B receptor (unknown origin) by PDSP assay.
The target of another assay is D(4) dopamine receptor (Homo sapiens, UniProt P21917). The assay is described as follows: Inhibition of dopamine D4 receptor (unknown origin) by PDSP assay.
For assay [6], the target named is 5-hydroxytryptamine receptor 2B (Homo sapiens, UniProt P41595). Nature of the assay: Inhibition of 5-HT2B receptor (unknown origin) by PDSP assay.
In assay [7] the target is 5-hydroxytryptamine receptor 7 (Homo sapiens, UniProt P34969). Nature of the assay: Inhibition of 5-HT7 receptor (unknown origin) by PDSP assay.
The target of assay [8] is Sodium-dependent noradrenaline transporter (Homo sapiens, UniProt P23975). Nature of the assay: Displacement of [3H]-nisoxetine from human NET expressed in HEK cell membranes. More on the design: species or system HEK293. For orientation: Displacement assays read how much labelled ligand stays bound in the presence of the test substance.
Assay [9] concerns the target T1, Muscarinic acetylcholine receptor M1 (Homo sapiens, UniProt P11229).
T1 sequence (P11229 whole entry): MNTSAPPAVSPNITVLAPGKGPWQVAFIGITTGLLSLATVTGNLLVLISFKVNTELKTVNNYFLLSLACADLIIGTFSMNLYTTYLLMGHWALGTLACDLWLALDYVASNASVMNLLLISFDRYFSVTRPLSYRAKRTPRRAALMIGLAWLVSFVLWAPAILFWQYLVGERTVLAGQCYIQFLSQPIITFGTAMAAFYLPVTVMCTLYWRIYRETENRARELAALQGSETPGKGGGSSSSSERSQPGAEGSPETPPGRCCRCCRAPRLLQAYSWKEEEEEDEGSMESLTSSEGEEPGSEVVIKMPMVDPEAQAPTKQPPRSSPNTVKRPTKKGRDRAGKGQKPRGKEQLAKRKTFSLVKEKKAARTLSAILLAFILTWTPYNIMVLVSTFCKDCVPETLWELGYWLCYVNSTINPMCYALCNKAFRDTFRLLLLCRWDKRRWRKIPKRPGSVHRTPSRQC
Nature of the assay: Inhibition of muscarinic M1 receptor (unknown origin) by PDSP assay.

The next assay has as its target Histamine H3 receptor (Homo sapiens, UniProt Q9Y5N1). Nature of the assay: Inhibition of histamine H3 receptor (unknown origin) by PDSP assay.
For assay [10], the target named is 5-hydroxytryptamine receptor 1A (Homo sapiens, UniProt P08908). The assay is described as follows: Inhibition of 5-HT1A receptor (unknown origin) by PDSP assay.
In assay [11] the target is Delta-type opioid receptor (Homo sapiens, UniProt P41143). Nature of the assay: Inhibition of delta opioid receptor (unknown origin) by PDSP assay.
Assay [12] deals with Kappa-type opioid receptor (Homo sapiens, UniProt P41145). Nature of the assay: Inhibition of kappa opioid receptor (unknown origin) by PDSP assay.
Another assay deals with Mu-type opioid receptor (Homo sapiens, UniProt P35372). Nature of the assay: Inhibition of mu opioid receptor (unknown origin) by PDSP assay.
Assay [13] has as its target T2, Alpha-1B adrenergic receptor (Homo sapiens, UniProt P35368).
T2 sequence (P35368 whole entry): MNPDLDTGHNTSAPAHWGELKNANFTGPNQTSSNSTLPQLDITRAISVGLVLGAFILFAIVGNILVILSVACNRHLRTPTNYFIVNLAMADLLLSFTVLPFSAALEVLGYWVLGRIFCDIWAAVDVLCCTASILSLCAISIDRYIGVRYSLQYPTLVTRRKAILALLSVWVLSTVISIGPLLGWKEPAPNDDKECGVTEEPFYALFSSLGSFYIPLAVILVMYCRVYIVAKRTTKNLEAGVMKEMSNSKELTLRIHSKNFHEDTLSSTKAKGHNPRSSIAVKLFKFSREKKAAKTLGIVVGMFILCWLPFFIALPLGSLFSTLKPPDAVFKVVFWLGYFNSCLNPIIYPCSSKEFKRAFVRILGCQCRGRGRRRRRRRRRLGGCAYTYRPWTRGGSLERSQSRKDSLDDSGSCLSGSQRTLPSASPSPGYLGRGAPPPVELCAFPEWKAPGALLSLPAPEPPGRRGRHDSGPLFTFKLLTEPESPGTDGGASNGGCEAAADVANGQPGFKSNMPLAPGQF
Nature of the assay: Inhibition of adrenergic alpha1B receptor (unknown origin) by PDSP assay.

Assay [14] deals with RAW264.7. The assay is described as follows: Neuroprotective activity in mouse RAW264.7 cells assessed as inhibition of LPS-stimulated nitric oxide release at 75 uM after 20 to 24 hrs by Griess assay relative to control. Format: functional.
Another assay is filed under the species Homo sapiens. Nature of the assay: Inhibition of NMDA receptor PCP binding site (unknown origin) at 10 uM by PDSP assay relative to control.
Assay [15] deals with RAW264.7. The assay is described as follows: Neuroprotective activity in mouse RAW264.7 cells assessed as inhibition of LPS-stimulated nitric oxide release up to 100 uM after 20 to 24 hrs by Griess assay. Format: functional, cell-based.
Assay [16] concerns the target 5-hydroxytryptamine receptor 6 (Homo sapiens, UniProt P50406). The assay is described as follows: Inhibition of 5-HT6 receptor (unknown origin) by PDSP assay.
For assay [17], the target named is 5-hydroxytryptamine receptor 5A (Homo sapiens, UniProt P47898). The assay is described as follows: Inhibition of 5-HT5A receptor (unknown origin) by PDSP assay.
The target of a further assay is Histamine H4 receptor (Homo sapiens, UniProt Q9H3N8). The assay is described as follows: Inhibition of histamine H4 receptor (unknown origin) by PDSP assay.
Assay [18] in a line: Inhibition of Ca2+ channel (unknown origin) by PDSP assay. More on the design: species or system Homo sapiens.

Chain of 5-hydroxytryptamine receptor 2A (P28223 whole entry): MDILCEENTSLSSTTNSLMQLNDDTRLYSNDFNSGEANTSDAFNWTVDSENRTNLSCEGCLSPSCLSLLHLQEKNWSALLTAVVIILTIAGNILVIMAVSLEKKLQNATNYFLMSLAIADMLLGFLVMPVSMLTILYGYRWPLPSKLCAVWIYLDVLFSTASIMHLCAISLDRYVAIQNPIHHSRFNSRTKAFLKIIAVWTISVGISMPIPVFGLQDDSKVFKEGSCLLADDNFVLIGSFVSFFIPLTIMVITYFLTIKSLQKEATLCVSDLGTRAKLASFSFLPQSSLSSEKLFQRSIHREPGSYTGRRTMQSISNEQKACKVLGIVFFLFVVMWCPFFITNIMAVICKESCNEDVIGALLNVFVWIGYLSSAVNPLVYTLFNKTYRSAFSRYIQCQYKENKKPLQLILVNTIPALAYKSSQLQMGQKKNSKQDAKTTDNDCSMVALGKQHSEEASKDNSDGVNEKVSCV
Chain of Kappa-type opioid receptor (P41145 whole entry): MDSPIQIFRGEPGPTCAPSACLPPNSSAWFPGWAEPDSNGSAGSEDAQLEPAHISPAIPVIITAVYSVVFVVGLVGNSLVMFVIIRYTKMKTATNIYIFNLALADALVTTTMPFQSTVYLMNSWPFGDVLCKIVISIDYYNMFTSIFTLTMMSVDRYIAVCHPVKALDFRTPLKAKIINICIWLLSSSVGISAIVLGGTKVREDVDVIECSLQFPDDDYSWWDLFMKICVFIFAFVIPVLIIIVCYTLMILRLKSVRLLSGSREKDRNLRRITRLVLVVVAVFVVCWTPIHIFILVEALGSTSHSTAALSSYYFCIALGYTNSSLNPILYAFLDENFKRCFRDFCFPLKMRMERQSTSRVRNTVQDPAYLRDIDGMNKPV
Chain of 5-hydroxytryptamine receptor 6 (P50406 whole entry): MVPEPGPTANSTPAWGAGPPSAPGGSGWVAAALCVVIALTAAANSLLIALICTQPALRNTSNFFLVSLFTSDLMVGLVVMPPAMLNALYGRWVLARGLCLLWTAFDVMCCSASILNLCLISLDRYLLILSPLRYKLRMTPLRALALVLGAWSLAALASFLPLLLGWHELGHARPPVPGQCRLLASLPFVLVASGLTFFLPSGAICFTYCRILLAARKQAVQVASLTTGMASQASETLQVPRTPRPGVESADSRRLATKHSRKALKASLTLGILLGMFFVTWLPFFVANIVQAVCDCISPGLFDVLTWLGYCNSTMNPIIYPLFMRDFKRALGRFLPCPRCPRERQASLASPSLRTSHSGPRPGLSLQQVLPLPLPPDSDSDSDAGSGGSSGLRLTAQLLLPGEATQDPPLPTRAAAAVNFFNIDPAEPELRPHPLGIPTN
Chain of 5-hydroxytryptamine receptor 2B (P41595 whole entry): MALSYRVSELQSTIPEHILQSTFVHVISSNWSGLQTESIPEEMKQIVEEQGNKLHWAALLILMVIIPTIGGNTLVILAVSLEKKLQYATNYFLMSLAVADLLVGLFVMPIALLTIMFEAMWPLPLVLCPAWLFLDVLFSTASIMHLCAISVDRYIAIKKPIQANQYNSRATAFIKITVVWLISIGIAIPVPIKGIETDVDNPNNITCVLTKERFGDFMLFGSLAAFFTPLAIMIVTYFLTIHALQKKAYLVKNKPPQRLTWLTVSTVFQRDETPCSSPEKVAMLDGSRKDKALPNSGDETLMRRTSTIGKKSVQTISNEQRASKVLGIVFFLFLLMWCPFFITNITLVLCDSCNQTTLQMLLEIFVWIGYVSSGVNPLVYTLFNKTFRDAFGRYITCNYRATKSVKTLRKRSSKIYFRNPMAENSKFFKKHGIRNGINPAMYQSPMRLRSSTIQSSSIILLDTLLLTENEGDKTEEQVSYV
Chain of D(4) dopamine receptor (P21917 whole entry): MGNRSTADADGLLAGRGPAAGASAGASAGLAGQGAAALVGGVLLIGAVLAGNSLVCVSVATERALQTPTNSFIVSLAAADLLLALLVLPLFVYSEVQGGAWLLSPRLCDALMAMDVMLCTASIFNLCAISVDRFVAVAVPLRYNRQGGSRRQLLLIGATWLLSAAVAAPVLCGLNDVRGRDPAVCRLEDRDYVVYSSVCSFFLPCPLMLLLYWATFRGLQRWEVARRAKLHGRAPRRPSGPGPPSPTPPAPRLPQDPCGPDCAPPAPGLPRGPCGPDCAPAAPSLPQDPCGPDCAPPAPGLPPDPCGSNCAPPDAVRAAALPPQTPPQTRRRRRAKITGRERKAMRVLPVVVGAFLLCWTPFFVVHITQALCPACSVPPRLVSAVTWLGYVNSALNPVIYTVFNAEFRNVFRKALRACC
Chain of Sodium-dependent noradrenaline transporter (P23975 whole entry): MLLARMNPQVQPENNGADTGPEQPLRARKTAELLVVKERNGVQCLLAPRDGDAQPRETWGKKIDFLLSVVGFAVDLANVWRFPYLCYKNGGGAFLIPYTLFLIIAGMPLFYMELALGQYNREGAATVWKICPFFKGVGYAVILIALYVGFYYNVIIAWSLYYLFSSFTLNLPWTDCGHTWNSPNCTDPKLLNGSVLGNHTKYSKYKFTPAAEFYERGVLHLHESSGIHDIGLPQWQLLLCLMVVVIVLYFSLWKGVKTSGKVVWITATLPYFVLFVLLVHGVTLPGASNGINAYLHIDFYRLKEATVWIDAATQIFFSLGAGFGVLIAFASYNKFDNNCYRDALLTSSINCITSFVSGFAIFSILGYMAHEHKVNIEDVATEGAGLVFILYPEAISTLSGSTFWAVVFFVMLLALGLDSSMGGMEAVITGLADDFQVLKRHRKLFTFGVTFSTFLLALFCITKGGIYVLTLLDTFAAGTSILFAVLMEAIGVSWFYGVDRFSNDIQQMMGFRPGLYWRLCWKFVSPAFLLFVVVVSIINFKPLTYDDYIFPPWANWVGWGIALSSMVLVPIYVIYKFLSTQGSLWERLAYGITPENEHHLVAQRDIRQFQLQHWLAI
Chain of 5-hydroxytryptamine receptor 5A (P47898 whole entry): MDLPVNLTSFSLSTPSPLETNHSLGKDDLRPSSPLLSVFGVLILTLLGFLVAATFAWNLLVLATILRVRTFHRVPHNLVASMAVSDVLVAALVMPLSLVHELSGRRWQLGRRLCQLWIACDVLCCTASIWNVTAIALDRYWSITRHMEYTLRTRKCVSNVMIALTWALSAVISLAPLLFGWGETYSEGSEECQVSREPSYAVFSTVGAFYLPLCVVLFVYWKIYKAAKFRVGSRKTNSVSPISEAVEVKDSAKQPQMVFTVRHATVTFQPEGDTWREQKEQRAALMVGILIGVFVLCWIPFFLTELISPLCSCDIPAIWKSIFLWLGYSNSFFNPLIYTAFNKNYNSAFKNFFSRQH
Chain of 5-hydroxytryptamine receptor 1A (P08908 whole entry): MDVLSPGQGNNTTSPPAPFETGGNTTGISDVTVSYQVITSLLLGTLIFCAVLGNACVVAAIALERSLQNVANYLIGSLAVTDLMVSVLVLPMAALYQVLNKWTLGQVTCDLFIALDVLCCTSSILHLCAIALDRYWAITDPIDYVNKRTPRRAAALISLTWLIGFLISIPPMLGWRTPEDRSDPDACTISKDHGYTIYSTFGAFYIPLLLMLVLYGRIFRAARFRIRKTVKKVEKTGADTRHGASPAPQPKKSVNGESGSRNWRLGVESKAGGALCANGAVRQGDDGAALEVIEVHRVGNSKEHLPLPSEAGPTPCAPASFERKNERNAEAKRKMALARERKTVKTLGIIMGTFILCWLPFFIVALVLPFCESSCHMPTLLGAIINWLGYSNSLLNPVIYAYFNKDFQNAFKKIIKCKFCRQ
Chain of 5-hydroxytryptamine receptor 7 (P34969 whole entry): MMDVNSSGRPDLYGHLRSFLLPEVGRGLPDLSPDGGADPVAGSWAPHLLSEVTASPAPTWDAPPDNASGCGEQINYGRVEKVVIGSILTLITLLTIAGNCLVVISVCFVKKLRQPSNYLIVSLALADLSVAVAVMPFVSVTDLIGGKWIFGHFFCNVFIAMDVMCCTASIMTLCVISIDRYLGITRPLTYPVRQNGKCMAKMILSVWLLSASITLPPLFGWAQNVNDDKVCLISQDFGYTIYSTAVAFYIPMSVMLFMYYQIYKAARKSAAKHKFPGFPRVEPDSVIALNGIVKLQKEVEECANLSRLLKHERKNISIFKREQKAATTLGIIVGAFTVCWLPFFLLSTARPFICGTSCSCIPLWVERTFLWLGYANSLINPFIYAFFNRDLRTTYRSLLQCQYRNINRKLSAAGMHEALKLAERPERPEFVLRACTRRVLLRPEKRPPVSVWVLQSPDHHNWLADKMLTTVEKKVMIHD
Chain of Histamine H4 receptor (Q9H3N8 whole entry): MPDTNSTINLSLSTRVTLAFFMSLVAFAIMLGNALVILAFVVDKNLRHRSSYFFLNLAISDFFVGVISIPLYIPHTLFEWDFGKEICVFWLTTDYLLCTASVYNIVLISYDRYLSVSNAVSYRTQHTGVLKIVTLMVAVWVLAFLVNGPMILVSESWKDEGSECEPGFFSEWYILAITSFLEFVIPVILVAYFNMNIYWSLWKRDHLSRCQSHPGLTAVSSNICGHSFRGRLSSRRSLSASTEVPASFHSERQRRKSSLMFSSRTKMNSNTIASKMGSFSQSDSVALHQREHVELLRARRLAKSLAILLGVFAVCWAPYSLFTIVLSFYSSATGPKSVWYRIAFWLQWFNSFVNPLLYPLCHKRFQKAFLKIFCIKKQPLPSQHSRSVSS
Chain of Histamine H3 receptor (Q9Y5N1 whole entry): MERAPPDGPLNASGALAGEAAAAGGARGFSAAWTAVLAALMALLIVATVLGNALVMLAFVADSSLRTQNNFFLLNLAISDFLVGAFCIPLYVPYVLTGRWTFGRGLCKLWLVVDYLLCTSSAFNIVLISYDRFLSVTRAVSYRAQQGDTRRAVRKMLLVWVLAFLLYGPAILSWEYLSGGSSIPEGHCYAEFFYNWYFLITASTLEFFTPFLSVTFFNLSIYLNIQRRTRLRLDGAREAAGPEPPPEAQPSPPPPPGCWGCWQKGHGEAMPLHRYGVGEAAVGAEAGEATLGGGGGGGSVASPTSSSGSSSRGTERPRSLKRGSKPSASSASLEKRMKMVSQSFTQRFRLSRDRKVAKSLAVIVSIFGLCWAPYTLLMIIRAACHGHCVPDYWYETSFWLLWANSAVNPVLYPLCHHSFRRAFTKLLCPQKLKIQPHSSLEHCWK

The Ki is a measure of affinity in units of concentration, obtained from inhibition or displacement. The low end stands for higher affinity, the high end for lower affinity. For `CN(Cc1ccc2c(c1)OCO2)[C@H]1C2C3CC4C5C3CC2C5C41` (some centres undefined), the affinity in [1] corresponds to a Ki of 4.88 µM. That is a single-digit micromolar value.

By inhibition is commonly meant the relative decrease from the control value, in per cent. On to `C1CCC(CN[C@H]2C3C4CC5C6C4CC3C6C52)CC1` (some centres undefined), for which the inhibition result with RAW264.7 [2] is “Dose-dependent effect”.

With `c1ccc(CCN[C@H]2C3C4CC5C6C4CC3C6C52)cc1` (some centres undefined), the inhibition result in the assay with RAW264.7 [2] is “Dose-dependent effect”. Besides, the Ki (in [3]; in [5]; at D(4) dopamine receptor) was over 10 µM each time. The inhibition at 100 µM in the assay with RAW264.7 [4] amounted to 17.5%.

As to `CN(CCc1ccccc1)[C@H]1C2C3CC4C5C3CC2C5C41` (some centres undefined), the Ki in assay [6] turned out to be 2710 nM; in assay [3], 1.73 µM; in assay [7], 4.42 µM.

In the case of `CN(CCCc1cccc(F)c1)[C@H]1C2C3CC4C2C(=O)C2C4C3C21` (some centres undefined), the Ki in assay [8] was 8.53 µM; in assay [9] it was over 10 µM; on Histamine H3 receptor it was 2050 nM.

Consider `CN(Cc1cccc(F)c1)[C@H]1C2C3CC4C2C(=O)C2C4C3C21` (some centres undefined), for which, in assay [10], the Ki was over 10 µM.

Turning to `CN(CCc1ccccn1)[C@H]1C2C3CC4C5C3CC2C5C41` (some centres undefined), the Ki in assay [11] worked out at 2790 nM; in assay [12] it was 934 nM; on Mu-type opioid receptor, 2120 nM.

In assay [12], `CN(Cc1cccnc1)[C@H]1C2C3CC4C5C3CC2C5C41` (some centres undefined) yielded a Ki of 1660 nM.

In turn, `CN(CC1CCCCC1)[C@H]1C2C3CC4C5C3CC2C5C41` (some centres undefined) showed a Ki in assay [13] of 0.0094 µM. Besides, the inhibition entry in the assay with RAW264.7 [2] is “Dose-dependent effect”. Moreover, the inhibition at 75 µM in the assay on RAW264.7 [14] came out at 88.3%.

In the case of `CN(Cc1ccccc1)[C@H]1C2C3CC4C2C(=O)C2C4C3C21` (some centres undefined), in the assay listed under Homo sapiens, the inhibition was under 50%. This molecule registered a Ki in assay [9] of 5.86 µM.

For the molecule `COc1cc(CN[C@H]2C3C4CC5C6C4CC3C6C52)cc(OC)c1OC` (some centres undefined), in the assay on RAW264.7 [15], the inhibition entry was “inactive”. For the same molecule, the Ki in assay [6] came out at 1960 nM; in assay [3], 3.06 µM; in [12], 1980 nM.

`COc1ccc(CN[C@H]2C3C4CC5C6C4CC3C6C52)cc1OC` (some centres undefined) had a Ki in assay [16] of over 10 µM.

Molecule `CN(CCCc1cccc(F)c1)[C@H]1C2C3CC4C5C3CC2C5C41` (some centres undefined) yielded a Ki in assay [3] of over 10 µM.

For the molecule `C1C2C3CC4C2C2C1C3[C@H](NCC13C5C6C7C5C1C7C63)C42` (some centres undefined), the inhibition result with RAW264.7 [2] is “Dose-dependent effect”. In addition, the Ki was 7.5 µM in assay [17], 809 nM in [12] and 7.47 µM in assay [9].

For `c1ccc(CCN[C@H]2C3C4CC5C6C4CC3C6C52)nc1` (some centres undefined), the Ki is 3.44 µM in assay [13], over 10 µM at Histamine H4 receptor, over 10 µM in assay [16] and over 10 µM at D(4) dopamine receptor.

As for `CN(Cc1ccccc1)[C@H]1C2C3CC4C5C3CC2C5C41` (some centres undefined), the Ki in assay [3] is over 10 µM.

Turning to `c1cc2c(cc1CN[C@H]1C3C4CC5C6C4CC3C6C51)OCO2` (some centres undefined), the Ki in [8] is 7.35 µM; in assay [17] it was 6.06 µM.

Take `c1ccc(CN[C@H]2C3C4CC5C6C4CC3C6C52)cc1` (some centres undefined): the inhibition result in the assay on RAW264.7 [15] is “inactive”. In addition, the figures for the Ki in [13], in assay [18] and in assay [12] were 6.2 µM, 3.62 µM and 4860 nM, respectively.

Source of the values: ChEMBL document CHEMBL2429832, “N-substituted 8-aminopentacyclo[5.4.0.0(2,6).0(3,10).0(5,9)]undecanes as σ receptor ligands with potential neuroprotective effects” (Bioorg Med Chem, 2013).
